Common to all, as to format: cell-based
For test [1], the system named is β-arrestin 1–AP2 interaction induced by APJ. Description: BRET interaction of β-arrestin 1 and β2-adaptin (AP2) induced by APJ. As to conditions: for log (τ/KA) / Δlog (τ/KA): APJ-β-arrestin1-AP2; for log (τ/KA): Black–Leff operational model; for Δlog (τ/KA): relative to Apelin-13; for Bias factor / Log (Bias): APJ-β-arrestin1-AP2 over Ca2+, reference Apelin-13; for Log (Bias): footnote a = statistically insignificant. As to the method:
(§1) To detect the potencies of different peptide ligands for APJ in living cells, real-time kinetic bioluminescence resonance energy transfer (BRET) assays were carried out as follows. HEK293 cells were grown to 80–90% confluence in 24-well plates and transiently transfected with various Rluc-, EYFP-, or Venus-tagged constructs ([Chen et al., 2014]; [Liu et al., 2016]). Approximately 36 h after transfection, the long-acting luciferase substrate EnduRen (E6481, Promega, Beijing Biotech Co., Ltd.) was added to each well at a final concentration of 60 μM and cells were incubated for 2 h at 37°C in a 5% CO2 incubator. BRET experiments were carried out using a Mithras LB941 plate reader (Berthold Technologies, Bad Wildbad, Germany) with three filters: a Rluc filter (400–475 nm), a Venus filter (515–575 nm) and an EGFP filter (500–550 nm) ([Liu et al., 2016]; [Ji et al., 2017]). The BRET ratio was calculated as the ratio of the emission at 535 ± 30 nm to that at 485 ± 20 nm. The results are expressed as the mBRET (mBRET = 1,000 × BRET ratio) ([Pfleger et al., 2006a]; [Pfleger et al., 2006b]). We use high glucose as a negative control group.
(§2) HEK293 cells were transiently co-transfected with the designated Rluc and GFP2 or Venus or EYFP-labeled constructs. Twenty-four hours after transfection, the cells were harvested in phenol red free medium containing 5% FCS in HEPES buffer and seeded in 96 well white microplate coated with poly-D-lysine. After 24 h, cells were washed twice in PBS and re-suspended in PBS containing 0.5 mM MgCl2 and 0.1% glucose. Coelenterazine h substrate was added at a final concentration of 5 μM in the total volume of 50 μL/well. Kinetic-response and dose-response curve of the recruitment of GRKs or β-arrestin 1 and β-arrestin 2 or AP2 to the APJ by six peptides measured by BRET. […] The BRET signals between receptor and GRKs/β-arrestin1 and 2/AP2 were recorded at 10 min (GRK2/5) or 15 min (β-arrestin1 and) or 30 min (AP2) after agonist stimulation. We use high glucose as a control group. BRET assays were performed as described previously ([Xue et al., 2018]). […] This signal is defined as the ligand induced BRET ratio.
(§3) The concentration-response data for the ligands in various assays were analyzed to determine the biases of the ligands for G protein dependent signaling or β-arrestin dependent signaling, according to a previously published method ([Kenakin et al., 2012]; [Hager et al., 2016]; [Hothersall et al., 2017]). Briefly, the concentration-response data for each ligand were fitted to the Black–Leff operation model to obtain the values of τ and K A, using the following equation: Response=[A]^nτ^nEm/[A]^nτ^n+([A]KA)^n where [A] is the concentration of the agonist, E m is the maximal response of the system, n is the transducer slope, and K A and τ describe the affinity and efficacy of the agonist, respectively. In the data fitting, the reparametrized form of the equation proposed by [Kenakin et al. (2012)] was used: Response=Em/1+exp{nln[1+exp(β1)/[A]]−nβ2} where β 1 and β 2 are the natural logarithm of K A and τ, respectively, and E m was set to 1. Thus, for each concentration-response curve, a non-linear regression was performed to fit the above equation to give β 1 and β 2 (as well as n). Log (τ/K A) values (“transduction coefficients”) for each ligand vs. each pathway were obtained. […] The ΔΔlog (τ/K A), or Log (Bias), which is the logarithm of the bias factor for a given pathway over a reference pathway (here, intracellular calcium release), was calculated for each ligand as Δlog (τ/K A)–Δlog (τ/K A)Calcium. The 95% confidence interval (CI) was expressed as the mean ± standard error; Log (Bias) values, whose 95% CI crosses 0, were considered statistically insignificant.
(§4) The data were analyzed using GraphPad Prism v5.0. All the data are presented as the mean ± SEM.
In general terms: BRET reads energy transfer from a luciferase to a nearby fluorophore.

Test [2] relates to APJ–β-arrestin 1 interaction. The experiment in a line: BRET recruitment of β-arrestin 1 to APJ. As to conditions: for log (τ/KA) / Δlog (τ/KA): APJ-β-arrestin1; for log (τ/KA): Black–Leff operational model; for Δlog (τ/KA): relative to Apelin-13; for Bias factor / Log (Bias): APJ-β-arrestin1 over Ca2+, reference Apelin-13. As to the method:
as §1, §2, §3, §4

The test system of a further test is APJ–GRK5 interaction. Description: BRET recruitment of GRK5 to APJ. As to conditions: for log (τ/KA) / Δlog (τ/KA): GRK5; for log (τ/KA): Black–Leff operational model; for Δlog (τ/KA): relative to Apelin-13; for Bias factor / Log (Bias): GRK5 over Ca2+, reference Apelin-13; for Log (Bias): footnote a = statistically insignificant. The method, then:
as §1, §2, §3, §4

Test [3] relates to β-arrestin 2–AP2 interaction induced by APJ. The experiment in a line: BRET interaction of β-arrestin 2 and β2-adaptin (AP2) induced by APJ. As to conditions: for log (τ/KA) / Δlog (τ/KA): APJ-β-arrestin2-AP2; for log (τ/KA): Black–Leff operational model; for Δlog (τ/KA): relative to Apelin-13; for Bias factor / Log (Bias): APJ-β-arrestin2-AP2 over Ca2+, reference Apelin-13; for Log (Bias): footnote a = statistically insignificant. As to the method:
as §1, §2, §3, §4

Consider `CSCC[C@H](NC(=O)[C@@H]1CSSC[C@H](NC(=O)[C@H](CC(N)=O)NC(=O)[C@H](Cc2c[nH]cn2)NC(=O)[C@H](CCCCN)NC(=O)[C@H](CCCNC(=N)N)NC(=O)[C@@H](N)CC(C)C)C(=O)N[C@@H](CC(C)C)C(=O)N[C@@H](CCC(N)=O)C(=O)N[C@@H](CCCNC(=N)N)C(=O)N[C@@H](CCCNC(=N)N)C(=O)N1)C(=O)N1CCC[C@H]1C(=O)N[C@@H](CC(C)C)C(=O)N[C@@H](Cc1c[nH]cn1)C(=O)N[C@@H](CO)C(=O)N[C@@H](CCCNC(=N)N)C(=O)N[C@H](C(=O)N1CCC[C@H]1C(=O)N[C@@H](Cc1ccccc1)C(=O)N1CCC[C@H]1C(=O)O)C(C)C` [Elabela-21], for which, in test [1], the “log (τ/KA)” value is on record as −1.9 ± 0.1, the “Δlog (τ/KA)” value is given as −0.5 ± 0.2, the Bias factor amounted to 13.2 and the “Log (Bias)” value stood at 1.1 ± 0.3. Besides, in test [2], the “log (τ/KA)” value is given as −1.9 ± 0.1, the “Δlog (τ/KA)” value came to 0.6 ± 0.1, the Bias factor came out at 146.2 and the “Log (Bias)” value is recorded as 2.2 ± 0.2. Also, in the test with APJ–GRK5 interaction, the “log (τ/KA)” value is −1.9 ± 0.3, the “Δlog (τ/KA)” value worked out at 0.5 ± 0.4, the Bias factor stood at 124.1 and the “Log (Bias)” value worked out at 2.1 ± 0.5. In test [3], the “log (τ/KA)” value is given as −2.1 ± 0.4, the “Δlog (τ/KA)” value is reported as −1.9 ± 0.5, the Bias factor is 0.5 and the “Log (Bias)” value is −0.3 ± 0.6 ^a.
On to `CSCC[C@H](NC(=O)[C@@H](NC(=O)[C@H](CC(C)C)NC(=O)[C@H](CC(N)=O)NC(=O)[C@@H](NC(=O)[C@@H]1CCCN1C(=O)[C@H](CCCNC(=N)N)NC(=O)[C@@H](N)CCC(N)=O)C(C)C)[C@@H](C)O)C(=O)N[C@@H](CCCNC(=N)N)C(=O)N[C@@H](CCCNC(=N)N)C(=O)N[C@@H](CCCCN)C(=O)N[C@@H](CC(C)C)C(=O)N[C@@H](CCCNC(=N)N)C(=O)N[C@@H](CCCCN)C(=O)N[C@@H](Cc1c[nH]cn1)C(=O)N[C@@H](CC(N)=O)C(=O)N[C@H]1CSSC[C@@H](C(=O)N[C@@H](CCSC)C(=O)N2CCC[C@H]2C(=O)N[C@@H](CC(C)C)C(=O)N[C@@H](Cc2c[nH]cn2)C(=O)N[C@@H](CO)C(=O)N[C@@H](CCCNC(=N)N)C(=O)N[C@H](C(=O)N2CCC[C@H]2C(=O)N[C@@H](Cc2ccccc2)C(=O)N2CCC[C@H]2C(=O)O)C(C)C)NC(=O)[C@H](CCCNC(=N)N)NC(=O)[C@H](CCCNC(=N)N)NC(=O)[C@H](CCC(N)=O)NC(=O)[C@H](CC(C)C)NC1=O` [Elabela-32], for which the “log (τ/KA)” value is on record as −0.1 ± 0.1 in test [1], −1.0 ± 0.1 in test [2], −0.3 ± 0.3 with APJ–GRK5 interaction and −2.0 ± 0.4 in test [3]. Further, the “Δlog (τ/KA)” value in test [1] is recorded as 1.3 ± 0.2; in test [2], 1.4 ± 0.1; with APJ–GRK5 interaction, 2.1 ± 0.4; in test [3], −1.8 ± 0.5. The Bias factor in test [1] was 1,580.1; in test [2] it was 1978.4; with APJ–GRK5 interaction, 8,921.8; in test [3] it was 1.1. In addition, the “Log (Bias)” value in test [1] came to 3.2; in test [1] (listed as ELA-32), 3.2 ± 0.3; in test [2], 3.3; in test [2] (listed as ELA-32), 3.3 ± 0.2; in the test on APJ–GRK5 interaction, 4.0; with APJ–GRK5 interaction (listed as ELA-32), 4.0 ± 0.5. For the same compound, the “Log (Bias)” value in test [3] is 0.0 ± 0.6 ^a. For the same compound, the “bias over calcium release” value in test [1] (β-arrestin 1–AP2) is given as > 1,500 fold; in test [2] (APJ–β-arrestin 1), > 1,500 fold; with APJ–GRK5 interaction (APJ–GRK5), > 6,000 fold. Also, the “APJ–β-arrestin 1 BRET signal (in words)” value in test [2] (dose-response, 15 min) was “significantly higher than those induced by the other peptide ligands”.

The values above are taken from article PMC7970304, “The Effects of Apelin and Elabela Ligands on Apelin Receptor Distinct Signaling Profiles” (Frontiers in Pharmacology, 2021).
